pEC50, pIC50: −log10 of the molar value.
Assays:
[1] = system: Hepatitis C virus; experiment: microbe, parasite or virus in culture; settings: genotype 1b, Huh-7, 72 h
[2] = target: Fatty acid synthase (Rattus norvegicus, UniProt P12785)
[3] = in vitro; settings: human, huh-7
[4] = in vitro; settings: dog, MDCK
[5] = in vitro; settings: plasma

Chain of Fatty acid synthase (P12785 whole entry): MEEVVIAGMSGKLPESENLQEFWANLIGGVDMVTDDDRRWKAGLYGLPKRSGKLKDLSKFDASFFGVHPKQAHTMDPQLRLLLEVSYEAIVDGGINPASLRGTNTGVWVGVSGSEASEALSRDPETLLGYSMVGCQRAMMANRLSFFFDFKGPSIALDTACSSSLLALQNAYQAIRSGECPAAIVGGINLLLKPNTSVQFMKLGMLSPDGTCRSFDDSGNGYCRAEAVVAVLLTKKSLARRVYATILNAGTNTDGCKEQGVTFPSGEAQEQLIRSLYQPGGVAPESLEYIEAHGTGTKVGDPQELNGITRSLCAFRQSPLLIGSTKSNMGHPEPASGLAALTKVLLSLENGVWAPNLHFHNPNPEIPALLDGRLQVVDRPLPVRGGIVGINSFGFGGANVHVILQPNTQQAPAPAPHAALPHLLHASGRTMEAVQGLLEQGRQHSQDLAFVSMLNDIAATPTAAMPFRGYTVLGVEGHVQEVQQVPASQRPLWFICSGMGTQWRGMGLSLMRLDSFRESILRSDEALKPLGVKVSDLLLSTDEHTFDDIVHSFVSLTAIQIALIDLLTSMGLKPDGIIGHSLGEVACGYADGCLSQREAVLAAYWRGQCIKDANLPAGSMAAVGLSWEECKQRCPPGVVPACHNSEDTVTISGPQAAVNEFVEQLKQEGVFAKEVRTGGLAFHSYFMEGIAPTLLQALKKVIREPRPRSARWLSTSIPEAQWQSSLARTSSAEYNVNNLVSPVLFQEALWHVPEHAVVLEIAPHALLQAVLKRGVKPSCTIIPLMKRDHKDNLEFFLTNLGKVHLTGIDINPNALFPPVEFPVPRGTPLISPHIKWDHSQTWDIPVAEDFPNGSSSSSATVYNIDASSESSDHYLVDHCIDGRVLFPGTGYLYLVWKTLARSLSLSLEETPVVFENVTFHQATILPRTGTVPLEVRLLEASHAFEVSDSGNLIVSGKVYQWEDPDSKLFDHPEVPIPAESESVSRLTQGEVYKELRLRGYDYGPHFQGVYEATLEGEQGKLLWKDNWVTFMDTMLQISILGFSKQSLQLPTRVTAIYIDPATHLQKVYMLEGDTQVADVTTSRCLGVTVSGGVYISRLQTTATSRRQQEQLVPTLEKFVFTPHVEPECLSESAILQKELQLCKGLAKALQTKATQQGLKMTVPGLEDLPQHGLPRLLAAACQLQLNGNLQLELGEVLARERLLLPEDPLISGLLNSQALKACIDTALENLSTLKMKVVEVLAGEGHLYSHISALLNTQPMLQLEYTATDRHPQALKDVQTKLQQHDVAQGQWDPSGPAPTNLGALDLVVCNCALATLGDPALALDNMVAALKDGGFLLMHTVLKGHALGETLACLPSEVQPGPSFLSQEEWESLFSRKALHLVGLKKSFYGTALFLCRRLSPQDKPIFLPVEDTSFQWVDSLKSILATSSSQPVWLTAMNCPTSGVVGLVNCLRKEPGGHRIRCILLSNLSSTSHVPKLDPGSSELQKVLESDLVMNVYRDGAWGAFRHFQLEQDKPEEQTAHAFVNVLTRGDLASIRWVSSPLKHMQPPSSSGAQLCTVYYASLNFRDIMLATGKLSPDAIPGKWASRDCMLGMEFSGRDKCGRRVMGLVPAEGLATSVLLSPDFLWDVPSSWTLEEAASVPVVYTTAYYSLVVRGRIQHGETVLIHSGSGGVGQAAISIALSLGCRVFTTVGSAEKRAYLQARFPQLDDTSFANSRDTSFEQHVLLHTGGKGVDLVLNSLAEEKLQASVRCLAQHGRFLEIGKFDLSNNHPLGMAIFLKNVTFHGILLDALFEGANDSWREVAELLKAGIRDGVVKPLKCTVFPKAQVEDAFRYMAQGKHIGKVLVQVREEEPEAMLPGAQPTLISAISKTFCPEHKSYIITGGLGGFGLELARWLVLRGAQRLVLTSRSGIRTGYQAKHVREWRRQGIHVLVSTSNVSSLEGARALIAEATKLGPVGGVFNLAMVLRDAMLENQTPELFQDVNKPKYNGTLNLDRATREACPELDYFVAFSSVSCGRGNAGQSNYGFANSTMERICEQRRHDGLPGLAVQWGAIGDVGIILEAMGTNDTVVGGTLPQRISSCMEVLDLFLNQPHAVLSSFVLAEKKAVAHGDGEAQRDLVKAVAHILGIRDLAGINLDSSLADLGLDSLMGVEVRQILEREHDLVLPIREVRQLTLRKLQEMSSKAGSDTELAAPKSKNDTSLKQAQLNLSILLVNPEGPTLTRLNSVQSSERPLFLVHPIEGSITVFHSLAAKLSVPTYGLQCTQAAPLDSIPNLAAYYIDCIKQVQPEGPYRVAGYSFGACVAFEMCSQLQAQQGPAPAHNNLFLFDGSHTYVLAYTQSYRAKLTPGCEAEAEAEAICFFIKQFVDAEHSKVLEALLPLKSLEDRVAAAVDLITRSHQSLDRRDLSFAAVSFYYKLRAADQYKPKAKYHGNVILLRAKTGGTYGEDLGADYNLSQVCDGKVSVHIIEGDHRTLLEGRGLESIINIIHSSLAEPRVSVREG

SMILES | pIC50 [1] | pIC50 [2] | pEC50 [1] | Papp [4] [×10⁻⁶ cm/s] | half-life [5] [h] | CC50 at 72 h [3] [nM]
Cc1ccc(C(=O)N2CCC(c3ccc(C#N)cc3)CC2)cc1-c1nc2ccccc2[nH]1 | < 4.30 | < 4.30 | – | – | – | –
Cc1cc(C)c(-c2nc3nc(N4CCC4)ccc3[nH]2)cc1C(=O)N1CCC(c2ccc(C#N)cc2)CC1 | – | – | 6.51 | – | – | > 3000
Cc1c(C(=O)N2CCC(c3ccc(C#N)cc3)CC2)cccc1-c1nc2cc(N3CCCC3)ncc2[nH]1 | – | – | < 5.00 | – | – | 1900
Cc1ccc(C(=O)N2CCC(c3ccc(C#N)cc3)CC2)cc1NC(=O)c1ccc(N2CCCC2)nc1 | – | 5.40 | – | – | – | –
N#Cc1ccc(C2CCN(C(=O)c3cccc(-c4nc5cc(N6CCCC6)ncc5[nH]4)c3)CC2)cc1 | – | 5.53 | 6.26 | – | – | > 3000
Cc1ccc(C(=O)N2CCC(c3ccc(C#N)cc3)CC2)cc1-c1nc2cc(N3CCCC3)ncc2[nH]1 | – | – | 6.76 | 8 | > 10 | > 20000
Cc1cc(C(=O)N2CCC(c3ccc(C#N)cc3)CC2)cc(-c2nc3cc(N4CCCC4)ncc3[nH]2)c1 | – | – | < 5.00 | – | – | > 10000
Cc1ccc(C(=O)N2CCC(c3ccc(C#N)cc3)CC2)cc1-c1nc2ccncc2[nH]1 | < 4.30 | < 4.30 | – | – | – | –
Cc1ccc(C(=O)N2CCC(c3ccc(C#N)cc3)CC2)cc1-c1nc2cc(N3CCN(C)CC3)ncc2[nH]1 | – | – | 6.08 | – | – | 15000

Second part, led by results:

pIC50 [1] | pIC50 [2] | pEC50 [1] | Papp [4] [×10⁻⁶ cm/s] | half-life [5] [h] | SMILES | CC50 at 72 h [3] [nM]
– | – | 6.82 | – | – | Cc1ccc(-c2nc3cc(N4CCCC4)ncc3[nH]2)cc1C(=O)N1CCC(c2ccc(C#N)cc2)CC1 | 8600
– | 5.41 | 6.89 | – | – | Cc1cc(C)c(-c2nc3cc(S(C)(=O)=O)cnc3[nH]2)cc1C(=O)N1CCC(c2ccc(C#N)cc2)CC1 | > 20000
– | – | 7.04 | – | – | Cc1ccc(C(=O)N2CCC(c3ccc(C#N)cc3)CC2)cc1-c1nc2cc(N3CCC3)ncc2[nH]1 | > 20000
– | – | 7.40 | – | – | Cc1cc(C)c(-c2nc3cc(N4CCOCC4)ncc3[nH]2)cc1C(=O)N1CCC(c2ccc(C#N)cc2)CC1 | > 3000
– | 6.50 | 7.08 | – | – | COCCN(C)c1cc2nc(-c3cc(C(=O)N4CCC(c5ccc(C#N)cc5)CC4)c(C)cc3C)[nH]c2cn1 | > 20000

From ChEMBL document CHEMBL2321667, “Imidazopyridine-Based Fatty Acid Synthase Inhibitors That Show Anti-HCV Activity and in Vivo Target Modulation” (ACS Med Chem Lett, 2013)
